Data: patent publication US20080226639A1, “Heparin Binding Peptide” (Enkan Pharmaceuticals A/S, priority 2004, published 2008)
Residues, ends and D or L forms follow the SMILES beside them.

Key:
[1] = system: rat cerebella granular neurons (CGNs); test: Neurite outgrowth of CGNs in co-culture with fibroblasts with or without NCAM expression; type: cell-based; settings: for neurite outgrowth of CGNs grown on fibroblasts without NCAM expression: CGNs on control fibroblasts without NCAM expression; for neurite outgrowth of CGNs grown on fibroblasts without NCAM expression / neurite outgrowth of CGNs grown on fibroblasts expressing NCAM: 24 h co-culture, different peptide concentrations (FIG. 1); for neurite outgrowth of CGNs grown on fibroblasts expressing NCAM: CGNs on monolayers of NCAM expressing fibroblasts
Description: Genetically modified fibroblasts (mouse fibroblastoid L-cells) with or without NCAM expression are seeded in eight-well LabTek tissue culture chamber slides (Nunc, Roskilde, Denmark) at a density 7×10^4 of cells/well and maintained at 37° C. and 5% CO2 in DMEM with 10% HS, 100 U/ml penicillin and 100 μg/ml streptomycin. 24 h after plating the medium is removed and CGNs (10^4 cells/well) are seeded on monolayers of fibroblasts with or without NCAM expression in Neurobasal-A medium containing 100 U/ml penicillin, 100 μg/ml streptomycin, 1% glutamax and supplemented with B27, and grown in co-culture for 24 hours, afterwards neurite outgrowth is measured. CGNs are prepared from postnatal day 3-4 rat pups according to Rønn, L. C., Doherty, P., Holm, A., Berezin, V., Bock, E. (2000). J. Neurochem. 75(2):665-71.

[2] = system: fibroblasts with or without NCAM expression (mouse fibroblastoid L-cells); test: Random cell motility of fibroblasts, time-lapse video-recording; type: cell-based; settings: both NCAM expressing fibroblasts and control fibroblasts (FIG. 5)
Description: For evaluation the effect of the peptides on cell motility, confluent cultures of fibroblasts with or without NCAM expression are dislodged with 0.5 mg/ml of trypsin and 0.75 mM EDTA in a modified Puck's saline (Gibco BRL), seeded in six-well tissue culture plates (Nunc) at a density of 4×10^3 cells/cm^2 and grown for 24 h at 37° C. and at 5% CO2.
Random cell motility was evaluated by use of time-lapse video-recording and image analysis as described previously (Walmod, et al. (1998). Cell Motil Cytoskeleton. 40(3), 220-37). […]
Evaluation of cell motility and morphology is performed using the image processing software PRIMA. The positions of individual cells are determined by manual marking of the centers of the nuclei. […] The parameters of mean squared cell speed (Sτ), rate of diffusion (R), and locomotive index (LI) are determined according to Walmod, et al. (2000) (Methods Mol. Biology. 161, 59-83) as described below.
The displacement of a cell is the Euclidean distance between two points corresponding to the initial and final positions of the cell. […] The mean squared cell displacement of a cellular population after a given time (t1) of observation was calculated as […]
where P is the persistence time in direction (23). The mean cell speed, Sτ, was calculated as the ratio of the mean displacement of cells (<dτ>) to the time interval τ. […]

[3] = system: primary cerebellar granule neurons (CGNs); test: Neurite outgrowth in primary culture of single CGNs; type: cell-based, rat; settings: single CGNs (FIG. 3); for maximal effect on neurite outgrowth: peptide immobilized on tissue culture plastic, coating concentration of 5 μg/ml
Description: Primary cerebellar granule neurons (CGNs) are prepared from postnatal day 3-4 rat pups according to Rønn, L. C., Doherty, P., Holm, A., Berezin, V., Bock, E. (2000). J. Neurochem. 75(2):665-71. Dissociated cerebella cells are grown at 37° C. and 5% CO2 in Neurobasal-A medium containing 20 mM Hepes, 100 U/ml penicillin, 100 μg/ml streptomycin, 1% glutamax and supplemented with B27 (all from Gibco BRL). For testing the effect of the peptides, CGNs are seeded in eight-well LabTech tissue chamber slides with a growth surface of Permanox plastic (Nunc) at a density of 10^4 cells/well in Neurobasal-A medium containing 100 U/ml penicillin, 100 μg/ml streptomycin, 1% glutamax and supplemented with B27. When treated with Heparinase III (1 U/ml), the enzyme is added to the culture medium immediately after plating. CGNs are treated with the enzyme for 1 h before addition of different concentrations (1 μg/ml, 5 μg/ml, and 20 μg/ml) of the peptides. After 24 h of culture, cells are fixed with paraformaldehyde, immunostained with primary mouse antibodies against CD90 (Thy-1) (1:200) (Caltag Laboratories, USA) (PC12-E2 cells) or GAP-43 (1:1000) (Chemicon, USA) (CGNs) and secondary Alexa Fluor®488 goat antibody against mouse IgG (1:1000) (Molecular Probes, Netherlands), and the length of neurites is measured by a stereological method as previously described (Ronn, L. C., Ralets, I., Hartz, B. P., Bech, M., Berezin, A., Berezin, V., Møller, A., Bock, E (2000). J Neurosci Methods. 100(1-2), 25-32).

[4] = molecular target: T1, recombinant Trk B receptor (Homo sapiens, UniProt Q16620); test: BIAcore binding analysis to Trk B receptor; settings: HBP or Ig2 module immobilized on sensor chip CM5, Trk B injected, 25° C., pH 7.4 (FIG. 7)
T1 construct: purchased RD Systems (USA)
Description: Recombinant the Ig2 module of NCAM was prepared using in the yeast P. pastoris expression system (Invitrogen, USA) as previously described (Kiselyov et al., Biol. Chem. 272, 10125-10134, 1997). Recombinant Trk B receptor was purchased from RD Systems (USA).
Binding analysis was performed using a BIAcoreX instrument (Biosensor AB) at 25° C. using 10 mM sodium phosphate pH 7.4, 150 mM NaCl as running buffer. The flow-rate was 5 μl/min. Data were analysed by non-linear curve-fitting using the manufacture's software. The HBP or recombinant Ig 2 module of NCAM were immobilized on a sensor chip CM5 using amine coupling kit (Biosensor AB) as follows: 1) the two halves of the chip (designated Fc1 and Fc2) were activated by 20 μl activation solution; 2) the protein was immobilized on Fc1 using 12 μl 20 μg/ml protein in 10 mM sodium phosphate buffer pH 6.0; 3) Fc1 and Fc2 were blocked by 35 μl blocking solution. Binding of Trk B to the immobilized HBP or the Ig module II of NCAM was studied as follows: Trk B was injected simultaneously into Fc1 (with the immobilized HBP or Ig module II of NCAM) and Fc2 (with nothing immobilized). The curve representing unspecific binding of the compound to the surface of Fc2 was subtracted from the curve representing binding of Trk B to the immobilized protein (HBP or the Ig 2 module of NCAM) and the surface of Fc1. […]

T1 sequence (Q16620 32-822): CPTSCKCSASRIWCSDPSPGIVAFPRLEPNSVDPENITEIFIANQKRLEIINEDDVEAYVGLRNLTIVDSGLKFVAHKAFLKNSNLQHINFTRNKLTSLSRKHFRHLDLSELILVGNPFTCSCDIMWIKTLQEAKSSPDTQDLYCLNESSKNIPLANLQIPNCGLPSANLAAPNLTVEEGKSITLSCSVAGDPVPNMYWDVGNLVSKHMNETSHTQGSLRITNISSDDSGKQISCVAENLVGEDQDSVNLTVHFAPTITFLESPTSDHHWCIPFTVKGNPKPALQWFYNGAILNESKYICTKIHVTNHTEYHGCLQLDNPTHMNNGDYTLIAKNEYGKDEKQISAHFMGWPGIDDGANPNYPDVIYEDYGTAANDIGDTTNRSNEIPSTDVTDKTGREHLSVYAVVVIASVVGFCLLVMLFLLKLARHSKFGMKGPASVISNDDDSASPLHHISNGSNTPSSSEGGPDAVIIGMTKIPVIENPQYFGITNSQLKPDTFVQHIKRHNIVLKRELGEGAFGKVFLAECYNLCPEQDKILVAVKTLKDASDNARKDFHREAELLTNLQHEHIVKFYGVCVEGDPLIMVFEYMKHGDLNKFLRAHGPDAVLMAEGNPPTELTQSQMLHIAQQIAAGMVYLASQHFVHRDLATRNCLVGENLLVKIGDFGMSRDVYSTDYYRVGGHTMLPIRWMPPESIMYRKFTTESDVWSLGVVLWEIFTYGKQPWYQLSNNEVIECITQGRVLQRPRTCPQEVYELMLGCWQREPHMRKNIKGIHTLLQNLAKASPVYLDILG

Row | Molecule | effect on NCAM mediated neurite outgrowth in co-cultures of CGNs with NCAM expressing fibroblasts, in the presence of HBP ([1]; NCAM expressing fibroblasts, HBP present (FIG. 2)) | effect on NCAM mediated neurite outgrowth in the absence of HBP ([1]; NCAM expressing fibroblasts, no HBP (FIG. 2)) | neurite outgrowth of CGNs grown on fibroblasts without NCAM expression [1] | neurite outgrowth of CGNs grown on fibroblasts expressing NCAM [1] | cell motility: rate of diffusion (R), mean cell speed (Sτ), locomotive index (LI) [2] | maximal effect on neurite outgrowth [3] | neuritogenic effect on CGNs grown on control fibroblasts under treatment with SU5402 (FGFR inhibitor) ([1]; control fibroblasts without NCAM expression, plus SU5402 (FIG. 2)) | change of the neurite outgrowth effect by treatment with heparinase III ([3]; heparinase III 1 U/ml) | Kd [4]
1 | Cc1c[nH]c(/C=C2\C(=O)Nc3ccccc32)c1CCC(=O)O [SU5402, reference compound] | only partially inhibited | blocks NCAM mediated neurite outgrowth | – | – | – | – | – | – | –
2 | KGRDVILAKDVRVI (HBP mutant (peptide M)) [HBP mutant, Lys-161 and Phe-166 substituted for Ala and Val] | – | – | still stimulates neurite outgrowth | does not affect the neurite outgrowth response | inhibitory effect on the motile behaviour of fibroblasts similar to the effect of HBP | 400% | – | – | –
3 | CC[C@H](C)[C@H](NC(=O)[C@H](Cc1ccccc1)NC(=O)[C@H](CCCNC(=N)N)NC(=O)[C@@H](NC(=O)[C@H](CC(=O)O)NC(=O)[C@H](CCCCN)NC(=O)[C@H](CCCCN)NC(=O)[C@H](CC(C)C)NC(=O)[C@@H](NC(=O)[C@@H](NC(=O)[C@H](CC(=O)O)NC(=O)[C@H](CCCNC(=N)N)NC(=O)CNC(=O)[C@@H](N)CCCCN)C(C)C)[C@@H](C)CC)C(C)C)C(N)=O [HBP, KGRDVILKKDVRFI] (H-KGRDVILKKDVRFI-NH2; N-terminus and C-terminus assumed) | – | – | in a dose-dependent manner increases neurite outgrowth | in a dose-dependent manner increases neurite outgrowth | clear inhibition of cell motility | 680% | is not blocked by treatment with SU5402 | reduced the effect of HBP | –
4 | Ig 2 module of NCAM: recombinant Ig2 module of NCAM prepared in the yeast P. pastoris expression system (protein) KLMFKNAPTPQEFKEGEDAVIVCDVVSSLPPTIIWKHKGRDVILKKDVRFIVLSNNYLQIRGIKKTDEGTYRCEGRILARGEINFKDIQVIVNV | – | – | – | – | – | – | – | – | 1 to 10 nM
